This data set in a line: Impact of dissolved oxygen on the stability of vitamin A in a 10% soybean lipid emulsion (Example 4). As to conditions: more than 6 months at 40° C., independently of light exposure. The format is physicochemical. From the text: Accordingly, at an oxygen level of about 0.300 ppm vitamin A after 6 months is no longer considered stable, i.e. recovery drops below 80%.
Various methods can be used to determine the DO content of a given solution. Generally, electrochemical or optical sensors are used for determining the DO concentration according to the invention. A preferred method comprises using a fiber-optic oxygen meter such as MICROX TX3, which is a single-channel, temperature-compensated oxygen meter with fiber-optic trace oxygen microsensors based on a glass fiber (e.g. 140 μm). […] For data visualization during measurements, the oxygen meter is connected to a LCD & Data-Logger Unit.
The stability of vitamin A was tested in a 10% soybean lipid emulsion having a peroxide level of below 5 milliequivalents (mEq) O2/kg. The lipid emulsion contained vitamin A in a concentration of 1 dd/25 mL, as well as vitamin E in a concentration of 1 dd/25 mL and the pH was adjusted to 5.9 with HCl.
FIG. 2 depicts the dependency of vitamin A recovery on the presence of dissolved oxygen.

vitamin A: the “stability in the presence of oxygen of above 0.3 ppm” value was “not stable”.
